Earlier results on one substance are cited in US11154491B2, “Use of Undaria extract to reduce signs of skin aging” (Kimberly-Clark Worldwide, Inc., priority 2014, dated 2021).

The series has as its system 3T3-L1 cells. Particulars: literature.

With Fucoidan, the adipogenesis result was “inhibit adipogenesis”.
